Data published in patent US12637428B2, “Isoquinoline derivatives as SIK2 inhibitors” (Cancer Research Technology Limited, priority 2019, dated 2026).

Experiments:
Type in all cases: biochemical
[1] = target: T1, EPHA2 (Homo sapiens, UniProt P29317); assay: EPHA2 kinase assay, IMAP fluorescence polarization; conditions: 50 or 100 μM ATP, Tris pH 8.5, average
T1 construct: purchased Life Technologies

[2] = target: T2, Src (Homo sapiens, UniProt P12931); assay: Src kinase assay, IMAP fluorescence polarization; conditions: 50 or 100 μM ATP, average
T2 construct: purchased Life Technologies
Summary of the method: (§1)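 IMAP FP format: 0.6-13 nM kinase, 100 nM FAM-peptide substrate, 50 or 100 μM ATP, Tris pH 7.2/4 mM MgCl2/0.2% BSA/2 mM DTT, 60 min RT. Compounds 0.00005-1 μM. Stop with 0.25% IMAP binding reagent (buffer A:B 85:15; 30:70 for Src).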

[3] = target: T3, SIK2 (Homo sapiens, UniProt Q9H0K1); assay: SIK2 kinase assay, IMAP fluorescence polarization; conditions: 50 or 100 μM ATP, average
T3 construct: purchased Life Technologies
Summary of the method: as §1

[4] = target: T4, Abl (Homo sapiens, UniProt P00519); assay: Abl kinase assay, IMAP fluorescence polarization; conditions: 50 or 100 μM ATP, average
T4 construct: purchased Life Technologies
Summary of the method: as §1

[5] = target: T5, SIK1 (Homo sapiens, UniProt P57059); assay: SIK1 kinase assay, IMAP fluorescence polarization; conditions: 50 or 100 μM ATP, average
T5 construct: purchased Life Technologies
Summary of the method: as §1

[6] = target: T6, SIK3 (Homo sapiens, UniProt Q9Y2K2); assay: SIK3 kinase assay, IMAP fluorescence polarization; conditions: 50 or 100 μM ATP, average
T6 construct: purchased Life Technologies
Summary of the method: as §1

T6 sequence (Q9Y2K2 whole entry): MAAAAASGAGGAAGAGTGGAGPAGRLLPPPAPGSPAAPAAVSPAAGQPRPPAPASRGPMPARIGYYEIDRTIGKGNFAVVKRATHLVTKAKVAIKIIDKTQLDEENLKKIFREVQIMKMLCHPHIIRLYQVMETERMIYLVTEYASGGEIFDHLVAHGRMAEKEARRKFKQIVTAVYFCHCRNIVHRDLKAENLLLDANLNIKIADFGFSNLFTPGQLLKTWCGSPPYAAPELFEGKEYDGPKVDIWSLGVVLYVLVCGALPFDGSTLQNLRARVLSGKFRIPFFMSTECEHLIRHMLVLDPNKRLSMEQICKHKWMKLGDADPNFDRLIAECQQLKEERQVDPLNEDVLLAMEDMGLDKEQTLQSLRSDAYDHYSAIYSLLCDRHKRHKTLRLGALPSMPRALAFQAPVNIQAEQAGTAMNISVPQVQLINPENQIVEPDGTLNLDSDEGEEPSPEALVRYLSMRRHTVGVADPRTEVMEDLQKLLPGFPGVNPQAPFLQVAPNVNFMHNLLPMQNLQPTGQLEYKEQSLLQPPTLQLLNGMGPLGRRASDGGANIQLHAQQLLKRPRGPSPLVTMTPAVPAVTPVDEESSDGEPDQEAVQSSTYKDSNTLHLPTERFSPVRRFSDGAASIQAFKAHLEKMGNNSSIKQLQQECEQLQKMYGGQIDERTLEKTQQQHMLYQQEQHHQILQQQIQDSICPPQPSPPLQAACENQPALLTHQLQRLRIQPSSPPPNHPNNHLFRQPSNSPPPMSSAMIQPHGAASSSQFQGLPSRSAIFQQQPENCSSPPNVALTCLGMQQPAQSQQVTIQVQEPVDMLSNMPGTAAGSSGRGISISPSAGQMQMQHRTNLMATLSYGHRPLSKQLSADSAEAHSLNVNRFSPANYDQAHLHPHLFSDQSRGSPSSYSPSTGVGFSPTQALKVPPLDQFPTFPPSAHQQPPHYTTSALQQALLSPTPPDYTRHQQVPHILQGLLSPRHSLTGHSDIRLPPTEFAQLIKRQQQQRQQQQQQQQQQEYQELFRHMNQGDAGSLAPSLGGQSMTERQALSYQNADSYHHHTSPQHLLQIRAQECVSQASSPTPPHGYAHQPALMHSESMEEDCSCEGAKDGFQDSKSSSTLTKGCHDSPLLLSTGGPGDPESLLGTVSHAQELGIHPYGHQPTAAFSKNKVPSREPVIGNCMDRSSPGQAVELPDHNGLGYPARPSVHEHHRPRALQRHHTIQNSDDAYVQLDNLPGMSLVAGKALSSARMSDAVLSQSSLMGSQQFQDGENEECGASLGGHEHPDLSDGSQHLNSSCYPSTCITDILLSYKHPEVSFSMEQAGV
T5 sequence (P57059 whole entry): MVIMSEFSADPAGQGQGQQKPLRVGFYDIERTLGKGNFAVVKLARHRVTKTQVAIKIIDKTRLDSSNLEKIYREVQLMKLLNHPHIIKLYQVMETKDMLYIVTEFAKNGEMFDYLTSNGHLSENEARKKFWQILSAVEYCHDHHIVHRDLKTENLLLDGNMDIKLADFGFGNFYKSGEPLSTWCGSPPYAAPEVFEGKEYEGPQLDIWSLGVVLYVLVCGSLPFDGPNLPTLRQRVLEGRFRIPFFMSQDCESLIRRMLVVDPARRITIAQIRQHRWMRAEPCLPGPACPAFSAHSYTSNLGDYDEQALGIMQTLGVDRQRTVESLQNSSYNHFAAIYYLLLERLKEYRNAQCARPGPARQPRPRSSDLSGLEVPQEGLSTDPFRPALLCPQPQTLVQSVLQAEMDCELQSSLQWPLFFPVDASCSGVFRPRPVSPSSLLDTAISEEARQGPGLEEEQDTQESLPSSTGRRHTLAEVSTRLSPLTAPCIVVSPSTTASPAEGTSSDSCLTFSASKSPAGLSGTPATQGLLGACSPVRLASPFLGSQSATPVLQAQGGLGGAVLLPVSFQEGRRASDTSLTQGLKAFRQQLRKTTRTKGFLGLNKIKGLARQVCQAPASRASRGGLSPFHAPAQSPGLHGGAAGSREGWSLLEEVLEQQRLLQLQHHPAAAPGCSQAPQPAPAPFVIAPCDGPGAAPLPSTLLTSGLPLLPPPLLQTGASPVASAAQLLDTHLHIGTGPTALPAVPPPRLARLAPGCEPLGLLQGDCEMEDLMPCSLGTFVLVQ
T2 sequence (P12931 whole entry): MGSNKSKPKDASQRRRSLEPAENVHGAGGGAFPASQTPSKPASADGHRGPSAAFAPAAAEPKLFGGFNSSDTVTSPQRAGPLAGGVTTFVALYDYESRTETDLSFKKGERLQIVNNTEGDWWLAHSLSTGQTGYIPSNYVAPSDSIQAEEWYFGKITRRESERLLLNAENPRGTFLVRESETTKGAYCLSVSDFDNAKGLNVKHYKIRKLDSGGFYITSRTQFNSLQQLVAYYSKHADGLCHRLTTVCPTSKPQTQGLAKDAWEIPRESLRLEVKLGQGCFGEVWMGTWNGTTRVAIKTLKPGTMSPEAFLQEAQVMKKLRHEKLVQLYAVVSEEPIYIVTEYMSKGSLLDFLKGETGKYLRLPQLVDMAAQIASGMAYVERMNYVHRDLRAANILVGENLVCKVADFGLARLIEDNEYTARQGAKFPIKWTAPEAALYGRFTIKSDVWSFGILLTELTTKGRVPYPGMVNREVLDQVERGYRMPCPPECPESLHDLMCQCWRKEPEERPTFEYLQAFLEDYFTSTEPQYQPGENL
T1 sequence (P29317 24-976): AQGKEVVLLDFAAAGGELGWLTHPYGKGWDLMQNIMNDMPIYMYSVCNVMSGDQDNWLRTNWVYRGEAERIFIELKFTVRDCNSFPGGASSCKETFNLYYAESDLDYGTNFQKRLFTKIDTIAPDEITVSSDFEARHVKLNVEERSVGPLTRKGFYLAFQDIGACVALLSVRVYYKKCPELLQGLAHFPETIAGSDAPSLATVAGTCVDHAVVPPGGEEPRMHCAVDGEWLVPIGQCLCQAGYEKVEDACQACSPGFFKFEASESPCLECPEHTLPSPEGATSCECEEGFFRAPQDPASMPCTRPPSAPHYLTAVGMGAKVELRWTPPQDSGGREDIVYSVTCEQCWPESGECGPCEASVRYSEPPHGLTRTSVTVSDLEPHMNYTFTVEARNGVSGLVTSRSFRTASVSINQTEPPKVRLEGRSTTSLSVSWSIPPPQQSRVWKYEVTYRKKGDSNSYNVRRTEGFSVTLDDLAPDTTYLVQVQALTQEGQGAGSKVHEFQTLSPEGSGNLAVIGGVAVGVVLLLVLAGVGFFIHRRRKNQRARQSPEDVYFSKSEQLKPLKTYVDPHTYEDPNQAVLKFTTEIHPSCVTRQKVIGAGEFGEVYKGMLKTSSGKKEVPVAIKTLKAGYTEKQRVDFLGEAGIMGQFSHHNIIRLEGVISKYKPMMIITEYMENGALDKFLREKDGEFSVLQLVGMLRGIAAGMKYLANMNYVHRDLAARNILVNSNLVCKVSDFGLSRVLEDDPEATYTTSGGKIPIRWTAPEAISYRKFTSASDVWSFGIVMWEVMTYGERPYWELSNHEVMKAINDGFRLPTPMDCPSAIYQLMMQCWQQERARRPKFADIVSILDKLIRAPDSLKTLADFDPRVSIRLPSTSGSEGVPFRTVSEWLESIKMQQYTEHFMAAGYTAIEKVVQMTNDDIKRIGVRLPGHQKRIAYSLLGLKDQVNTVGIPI
T4 sequence (P00519 whole entry): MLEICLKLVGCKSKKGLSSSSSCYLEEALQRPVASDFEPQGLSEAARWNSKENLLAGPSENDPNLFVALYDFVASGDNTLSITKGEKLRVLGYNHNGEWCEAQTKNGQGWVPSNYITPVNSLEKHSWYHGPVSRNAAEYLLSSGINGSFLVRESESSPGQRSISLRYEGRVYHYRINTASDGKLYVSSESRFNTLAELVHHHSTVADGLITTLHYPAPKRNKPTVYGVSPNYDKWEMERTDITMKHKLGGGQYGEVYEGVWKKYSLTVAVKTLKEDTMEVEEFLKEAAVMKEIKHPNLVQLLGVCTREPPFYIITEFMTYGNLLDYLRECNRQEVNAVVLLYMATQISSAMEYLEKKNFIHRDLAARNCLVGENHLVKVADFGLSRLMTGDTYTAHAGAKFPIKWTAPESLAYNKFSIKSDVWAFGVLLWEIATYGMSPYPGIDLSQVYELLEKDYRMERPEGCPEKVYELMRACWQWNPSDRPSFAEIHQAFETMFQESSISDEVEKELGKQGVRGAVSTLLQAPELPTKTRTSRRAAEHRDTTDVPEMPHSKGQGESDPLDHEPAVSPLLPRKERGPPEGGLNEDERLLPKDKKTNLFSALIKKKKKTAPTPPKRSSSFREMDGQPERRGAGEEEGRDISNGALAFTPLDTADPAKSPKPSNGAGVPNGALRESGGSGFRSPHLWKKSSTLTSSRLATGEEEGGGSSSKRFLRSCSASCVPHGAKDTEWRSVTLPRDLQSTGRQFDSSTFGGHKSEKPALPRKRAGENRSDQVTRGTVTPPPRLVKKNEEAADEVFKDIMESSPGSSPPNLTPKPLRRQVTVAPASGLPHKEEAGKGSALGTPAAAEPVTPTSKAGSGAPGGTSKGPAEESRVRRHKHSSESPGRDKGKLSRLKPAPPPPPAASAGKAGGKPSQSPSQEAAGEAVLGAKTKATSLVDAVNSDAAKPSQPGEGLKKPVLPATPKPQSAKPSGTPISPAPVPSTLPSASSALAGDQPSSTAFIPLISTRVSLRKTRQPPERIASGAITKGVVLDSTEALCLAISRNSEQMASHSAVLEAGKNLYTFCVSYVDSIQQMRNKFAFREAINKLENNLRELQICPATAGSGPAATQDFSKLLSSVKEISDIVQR

| Compound | Ki [1] [nM] | Ki [2] [nM] | Ki [3] [nM] | Ki [4] [nM] | Ki [5] [nM] | Ki [6] [nM] |
| --- | --- | --- | --- | --- | --- | --- |
| Cc1cccc(F)c1-c1cc(NC2CN(C)C2)c2cc(N)ncc2c1 [Example 68, 7-(2-Fluoro-6-methyl-phenyl)-N5-(1-methylazetidin-3-yl)isoquinoline-3,5-diamine] | 323 | 160 | 0.1 | 17.8 | 0.532 | 0.993 |
| CCN1CCC(Nc2cc(-c3c(C)cccc3F)cc3cnc(N)nc23)CC1 [Example 127, N8-(1-Ethyl-4-piperidyl)-6-(2-fluoro-6-methyl-phenyl)quinazoline-2,8-diamine] | 149 | 30.8 | 0.168 | 7.16 | 0.647 | 1.22 |
| Cc1cccc(F)c1-c1cc(N2CCC[C@H](CN(C)C)C2)c2cc(N)ncc2c1 [Example 60, 5-[(3R)-3-[(dimethylamino)methyl]-1-piperidyl]-7-(2-fluoro-6-methyl-phenyl)isoquinolin-3-amine] | > 1000 | 798 | 1.46 | 223 | 7.97 | 42.4 |
| Cc1cccc(F)c1-c1cc(N[C@@H]2CCN(C)C2)c2cc(N)ncc2c1 [Example 69, 7-(2-fluoro-6-methyl-phenyl)-N5-[(3R)-1-methylpyrrolidin-3-yl]isoquinoline-3,5-diamine] | > 1000 | 35.8 | 0.0972 | 5.14 | 0.3 | 0.986 |
| Cc1cccc(F)c1-c1cc(C2CCN(C)CC2)c2cc(N)ncc2c1 [Example 117, 7-(2-Fluoro-6-methyl-phenyl)-5-(1-methyl-4-piperidyl)isoquinolin-3-amine] | > 1000 | > 1000 | 0.0546 | 12.3 | 0.678 | 0.473 |
| Cc1cccc(F)c1-c1cc(NC2CCNCC2)c2ncncc2c1 [Example 123, 6-(2-Fluoro-6-methyl-phenyl)-N-(4-piperidyl)quinazolin-8-amine] | 216 | > 1000 | 1.86 | > 1000 | 2.72 | 6.92 |
| Cc1cccc(F)c1-c1cc(NC2CCN(C)CC2)c2ccncc2c1 [Example 103, 7-(2-Fluoro-6-methyl-phenyl)-N-(1-methyl-4-piperidyl)isoquinolin-5-amine] | 189 | 143 | 0.296 | 97.2 | 2.21 | 5.01 |
| Cc1cccc(F)c1-c1cc(NC[C@@H]2CCN(C)C2)c2cc(N)ncc2c1 [Example 74, 7-(2-fluoro-6-methyl-phenyl)-N5-[[(3S)-1-methylpyrrolidin-3-yl]methyl]isoquinoline-3,5-diamine] | 66.1 | > 1000 | 0.101 | 0.505 | 0.461 | 0.765 |
| CNC[C@@H]1CCCN(c2cc(-c3c(C)cccc3F)cc3cnc(N)cc23)C1 [Example 22, 7-(2-fluoro-6-methyl-phenyl)-5-[(3S)-3-(methylamino-methyl)-1-piperidyl]isoquinolin-3-amine] | 227 | 304 | 0.563 | 46.6 | 1.67 | 13.6 |
| Cc1cccc(F)c1-c1cc(N[C@H]2CC[C@H](O)CC2)c2cc(N)ncc2c1 [Example 109, 4-[[3-amino-7-(2-fluoro-6-methyl-phenyl)-5-isoquinolyl]amino]cyclo hexanol] | > 1000 | 3330 | 1.6 | 74.8 | 3.76 | 14.9 |
| Cc1cccc(F)c1-c1cc(N[C@H]2CCNC2)c2cc(N)ncc2c1 [Example 7, 7-(2-fluoro-6-methyl-phenyl)-N5-[(3S)-pyrrolidin-3-yl]isoquinoline-3,5-diamine] | 199 | 193 | 0.0496 | 5.55 | 0.414 | 0.325 |
| Cc1cccc(F)c1-c1cc(NC2CCN(C)CC2)c2cc(N)ncc2c1F [Example 119, 8-fluoro-7-(2-fluoro-6-methyl-phenyl)-N5-(1-methyl-4-piperidyl)isoquinoline-3,5-diamine] | > 1000 | > 1000 | 3.11 | > 1000 | 4.3 | 25 |
| Cc1cccc(F)c1-c1cc(N2CCC(O)CC2)c2cc(N)ncc2c1 [Example 104, 1-[3-Amino-7-(2-fluoro-6-methyl-phenyl)-5-isoquinolyl]piperidin-4-ol] | > 1000 | > 1000 | 4.37 | 45.4 | 43.4 | 176 |
| Cc1cccc(F)c1-c1cc(NC2CNC2)c2cc(N)ncc2c1 [Example 3, N5-(azetidin-3-yl)-7-(2-fluoro-6-methyl-phenyl)isoquinoline-3,5-diamine] | 878 | 330 | 0.143 | 20.4 | 0.808 | 0.643 |
| Cc1cccc(F)c1-c1cc(N[C@@H]2CCCCNC2)c2cc(N)ncc2c1 [Example 17, N5-[(3R)-azepan-3-yl]-7-(2-fluoro-6-methyl-phenyl)isoquinoline-3,5-diamine] | > 1000 | > 1000 | 0.096 | 2.55 | 0.463 | 1.65 |
| Cc1cccc(F)c1-c1cc(NC2CCNCC2)c2ccncc2c1 [Example 49, 7-(2-Fluoro-6-methyl-phenyl)-N-(4-piperidyl)isoquinolin-5-amine] | 175 | 219 | 0.116 | > 1000 | 0.496 | 0.778 |
| Cc1cccc(F)c1-c1cc(OC2CN(C)C2)c2cc(N)ncc2c1 [Example 102, 7-(2-fluoro-6-methyl-phenyl)-5-(1-methylazetidin-3-yl)oxy-isoquinolin-3-amine] | > 1000 | 274 | 0.219 | 24.6 | 1.46 | 5.27 |
| Cc1cccc(F)c1-c1cc(NCC2CNC2)c2cc(N)ncc2c1 [Example 11, N5-(azetidin-3-ylmethyl)-7-(2-fluoro-6-methyl-phenyl)isoquinoline-3,5-diamine] | 95.1 | 23.5 | 0.0672 | 0.921 | 0.417 | 0.195 |
| Cc1cccc(Cl)c1-c1cc(NC2CN(C)C2)c2cc(N)ncc2c1 [Example 63, 7-(2-chloro-6-methyl-phenyl)-N5-(1-methylazetidin-3-yl)isoquinoline-3,5-diamine] | 220 | 151 | 0.998 | 104 | 2.01 | 10.1 |

Now those with a lower Ki [1], led by results:

| Ki [1] [nM] | Ki [2] [nM] | Ki [3] [nM] | Ki [4] [nM] | Ki [5] [nM] | Ki [6] [nM] | Compound |
| --- | --- | --- | --- | --- | --- | --- |
| 54.9 | 105 | 0.646 | 58.7 | 0.528 | 1.15 | Cc1cccc(Cl)c1-c1cc(NC2CCN(C)CC2)c2ccncc2c1 [Example 66, 7-(2-chloro-6-methyl-phenyl)-N-(1-methyl-4-piperidyl)isoquinolin-5-amine] |
| 49.5 | 145 | 0.0517 | 0.298 | 0.31 | 0.57 | Cc1cccc(F)c1-c1cc(NC[C@@H]2CCNC2)c2cc(N)ncc2c1 [Example 6, 7-(2-fluoro-6-methyl-phenyl)-N5-[[(3R)-pyrrolidin-3-yl]methyl]isoquinoline-3,5-diamine] |
| 47.4 | 80.2 | 4.93 | 16.7 | 8.53 | 13.8 | Cc1cccc(F)c1-c1cc(C(=O)NC2CCN(C)CC2)c2cc(N)ncc2c1 [Example 116, 3-Amino-7-(2-fluoro-6-methyl-phenyl)-N-(1-methyl-4-piperidyl)isoquinoline-5-carboxamide] |
| 24.6 | 163 | 0.0395 | 0.341 | 0.302 | 0.0838 | Cc1cccc(F)c1-c1cc(N[C@H]2CCCNC2)c2cc(N)ncc2c1 [Example 26, 7-(2-fluoro-6-methyl-phenyl)-N5-[(3S)-3-piperidyl]isoquinoline-3,5-diamine] |
| 23.9 | 60 | 3.09 | 12.1 | 5.45 | 11.5 | Cc1cccc(F)c1-c1cc(C(=O)NC2CCNCC2)c2cc(N)ncc2c1 [Example 52, 3-Amino-7-(2-fluoro-6-methyl-phenyl)-N-(4-piperidyl)isoquinoline-5-carboxamide] |
| 22.3 | 34.3 | 0.0838 | 6.72 | 0.656 | 1.98 | Cc1cccc(F)c1-c1cc(N[C@H]2CCCN(C)C2)c2cc(N)ncc2c1 [Example 86, 7-(2-fluoro-6-methyl-phenyl)-N5-[(3S)-1-methyl-3-piperidyl] isoquinoline-3,5-diamine] |
| 18.9 | 98 | 0.983 | 66.1 | 1.27 | 3.23 | Cc1cccc(Cl)c1-c1cc(NC2CCNCC2)c2ccncc2c1 [Example 50, 7-(2-chloro-6-methyl-phenyl)-N-(4-piperidyl) isoquinolin-5-amine] |
| 18.1 | 19.3 | 0.0784 | 17.4 | 0.176 | 0.339 | Cc1cccc(Cl)c1-c1cc(NC2CCN(C)CC2)c2nc(N)ncc2c1 [Example 129, 6-(2-chloro-6-methyl-phenyl)-N8-(1-methyl-4-piperidyl)quinazoline-2,8-diamine] |
